Calls of active or inactive are those of the source. How the calls were made is not given here.
Assay: SKN7 mediated toxicity in Saccharomyces cerevisiae, growth rescue counterscreen, dose confirmation (AID 624258);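 further: growth read after three days of incubation at 30 °C; 0% = median of neutral control wells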
Conditions: S. cerevisiae SKN7-toxicity growth rescue, plate reader; at 19.5 µM (top of the series)

For CC(C)(C)OC(=O)N1CCC(c2cc(-c3cccs3)n[nH]2)CC1, which growth rescue activity is on record?
Its growth rescue activity is -58.6% (inactive).

For CNc1cc(CSC)nc(SCc2ccc(Cl)cc2Cl)n1, which growth rescue activity is on record?
Its growth rescue activity is -57.8% (inactive).

For CC1(C)CC(=O)C(N=Nc2ccc3ncsc3c2)=C(O)C1, which growth rescue activity is on record?
The growth rescue activity was 0.603% (inactive).

For CCC1=NN(C(=O)c2cccc(Br)c2)C(O)(c2ccc(Br)cc2)C1 (centres undefined), which growth rescue activity is on record?
The growth rescue activity was -2.16% (inactive).

For Cn1nc(C(F)(F)F)c(C#N)c1N1CCN(c2ccc(F)cc2)CC1, which growth rescue activity is on record?
Its growth rescue activity is -49.6% (inactive).

Which growth rescue activity does the source give for Oc1cccc2ccc(Nc3ccccn3)nc12 here?
The growth rescue activity was 6.81% (inactive).

For Cc1ccc(-n2ncc(Br)c(Br)c2=O)cc1, which growth rescue activity is on record?
The growth rescue activity was 23.6% (inactive).

Which growth rescue activity does the source give for O=S(=O)(c1ccc(Oc2ccc(Br)cc2)cc1)N1CCOCC1 here?
The growth rescue activity was 9.57% (inactive).

Which growth rescue activity does the source give for COC(=O)Cc1cc(=O)n(-c2ccccc2)[nH]1 here?
The growth rescue activity was 9.07% (inactive).

Which growth rescue activity does the source give for CCCOc1ccc(S(=O)(=O)n2cc(F)c(=O)[nH]c2=O)cc1 here?
Its growth rescue activity is 0% (inactive).

With O=S(=O)(c1c(Cl)sc(Cl)c1Br)N1CCCC1 as the compound, how does the growth rescue activity read?
The growth rescue activity was -25% (inactive).

Which growth rescue activity does the source give for CC12CNCC(C)(CN(C3(O)C(=O)Nc4ccc(Br)cc43)C1)C2=O (centres undefined) here?
The growth rescue activity was -39.9% (inactive).

With O=[N+]([O-])c1ccc(/C=N/NC(=S)Nc2ccc(Cl)cc2Cl)s1 as the compound, how does the growth rescue activity read?
The growth rescue activity was -44% (inactive).

With CC1(OC(=O)CCc2ccccc2)C(=O)C=C2C=C(c3ccc(C#N)cc3)N(Cc3ccco3)C=C2C1=O (centres undefined) as the compound, how does the growth rescue activity read?
Its growth rescue activity is 3.67% (inactive).

For COc1ccc(O)c(C(=O)CC(=O)c2ccc(F)cc2)c1, which growth rescue activity is on record?
The growth rescue activity was -74.9% (inactive).

With CC12CC3(C)CC(C)(C1)CC(NC(=O)N1CCCC1)(C2)C3 as the compound, how does the growth rescue activity read?
Its growth rescue activity is -73.5% (inactive).

With O=c1[nH]c2c(c(=O)[nH]1)OCN(Cc1ccccc1)C2 as the compound, how does the growth rescue activity read?
The growth rescue activity was -23.4% (inactive).

For CCC(C)c1ccc(NC(=S)NCCn2cc(Br)cn2)cc1 (centres undefined), which growth rescue activity is on record?
The growth rescue activity was -33.1% (inactive).

With CC1CCc2c(C(=O)Nc3ccccn3)csc2C1 (centres undefined) as the compound, how does the growth rescue activity read?
The growth rescue activity was -95.2% (inactive).

For COc1ccc(N(C)S(=O)(=O)c2ccc(Cl)c(C(=O)NNC(=O)c3ccccc3O)c2)cc1, which growth rescue activity is on record?
Its growth rescue activity is 4.7% (inactive).

Which growth rescue activity does the source give for COc1ccc2oc(=O)c(-c3csc(Nc4cccc(O)c4)n3)cc2c1 here?
The growth rescue activity was 12.4% (inactive).

For COc1cc2cnc(-c3ccccc3)c(C(=O)c3ccc(F)cc3)c2cc1OC, which growth rescue activity is on record?
The growth rescue activity was 2.41% (inactive).

For CC(C)N1CCN(c2ccc(OC[C@H]3CO[C@](Cn4cncn4)(c4ccc(Cl)cc4Cl)O3)cc2)CC1, which growth rescue activity is on record?
Its growth rescue activity is -63.3% (inactive).

For S=C(NNc1ccc2ccccc2c1)NC1CCCCC1, which growth rescue activity is on record?
The growth rescue activity was -14.9% (inactive).

With OCCN(CCO)c1cc2c3ccccc3ccc2c2ccccc12 as the compound, how does the growth rescue activity read?
The growth rescue activity was 9.38% (inactive).

For CC1Oc2ccccc2C=C1/C=N/Nc1ccc(C(=O)O)cc1 (centres undefined), which growth rescue activity is on record?
Its growth rescue activity is -32.7% (inactive).

For Cc1ccc(Sc2cc(C)nc(-c3ccccn3)n2)cc1, which growth rescue activity is on record?
The growth rescue activity was -67.1% (inactive).

Which growth rescue activity does the source give for CCc1ccc(OCc2n[nH]c(=S)n2Cc2ccccc2)cc1 here?
The growth rescue activity was -30.5% (inactive).

Which growth rescue activity does the source give for O/N=C/c1cc(Br)ccc1OCc1ccccc1F here?
The growth rescue activity was -57.4% (inactive).

With O=c1c2ccccc2nc(-c2cccc(Cl)c2)n1O as the compound, how does the growth rescue activity read?
Its growth rescue activity is -66% (inactive).

For Cc1cccc(/C=N/NC(=O)C(C)Nc2cccc3ccccc23)n1 (centres undefined), which growth rescue activity is on record?
Its growth rescue activity is -1.71% (inactive).

For O=C(N1CCN(c2ccccc2)CC1)C1(S(=O)(=O)c2ccc(Cl)cc2)CC1, which growth rescue activity is on record?
The growth rescue activity was 21.3% (inactive).

Which growth rescue activity does the source give for CCO/C=C1/C(=O)N(Cc2ccccc2)C(=O)c2ccccc21 here?
The growth rescue activity was 2.35% (inactive).

With O=C(Nc1nnc(-c2cccs2)o1)c1cccc(Oc2ccccc2)c1 as the compound, how does the growth rescue activity read?
The growth rescue activity was -6.4% (inactive).

For Cc1ccc(Sc2ccc(NC(=O)CCl)cc2)cc1C, which growth rescue activity is on record?
Its growth rescue activity is -34.2% (inactive).

With COc1ccc(C(C)(C)C)cc1NC(=O)COC(=O)c1ccc([N+](=O)[O-])o1 as the compound, how does the growth rescue activity read?
The growth rescue activity was -88.2% (inactive).

Which growth rescue activity does the source give for Fc1ccc(N2CCN(c3ccc4c(C(F)(F)F)cc(C(F)(F)F)nc4n3)CC2)cc1 here?
The growth rescue activity was 53.6% (inactive).

For Cc1ccsc1/C=C/c1ccc2cccc(O)c2n1, which growth rescue activity is on record?
The growth rescue activity was -50.7% (inactive).

Which growth rescue activity does the source give for CCOC(=O)C1=NN(c2ccccc2)C(=O)/C1=C\c1ccc(N(C)C)cc1 here?
Its growth rescue activity is -16.7% (inactive).

For CCCCC(CC)c1nnc(NC(=O)c2cccs2)s1 (centres undefined), which growth rescue activity is on record?
The growth rescue activity was -59.6% (inactive).

Which growth rescue activity does the source give for CCCCCCCn1c(=O)c(C(=O)OC)c(N)c2ccccc21 here?
Its growth rescue activity is -87.1% (inactive).

For O=S(=O)(Nc1cc(Sc2ncn[nH]2)c(O)c2ccccc12)c1ccccc1, which growth rescue activity is on record?
Its growth rescue activity is -4.91% (inactive).

For CCCCC(c1nnnn1Cc1ccco1)N1CCN(c2nc3ccccc3s2)CC1 (centres undefined), which growth rescue activity is on record?
Its growth rescue activity is -9.41% (inactive).

For CN(c1ccccc1)c1nc(N2CCCC2)nc(-n2ccnc2)n1, which growth rescue activity is on record?
The growth rescue activity was -4.75% (inactive).

For Cn1ccsc1=NC(=O)c1ccc([N+](=O)[O-])o1, which growth rescue activity is on record?
Its growth rescue activity is -53.8% (inactive).

For Oc1c(Cl)cc(Cl)cc1/C=N/NC(=S)NC1CC2C=CC1C2 (centres undefined), which growth rescue activity is on record?
The growth rescue activity was -42.5% (inactive).

For CC(=O)N(c1ccccc1)c1ccc([N+](=O)[O-])cc1[N+](=O)[O-], which growth rescue activity is on record?
Its growth rescue activity is -25.3% (inactive).

With C=CCc1ccc(O)c(-c2ccc(O)c(CC=C)c2)c1 as the compound, how does the growth rescue activity read?
Its growth rescue activity is -65.1% (inactive).

With Cc1ccc(S(=O)(=O)Nc2ccc(O)c3cccnc23)cc1 as the compound, how does the growth rescue activity read?
The growth rescue activity was -0.63% (inactive).

Which growth rescue activity does the source give for CC(C)C(=O)NC(c1ccco1)c1ccc2cccnc2c1O (centres undefined) here?
The growth rescue activity was -67.3% (inactive).

Which growth rescue activity does the source give for COc1cnc(-c2ccccn2)nc1Sc1ccccc1 here?
Its growth rescue activity is -65.3% (inactive).

For O=[N+]([O-])c1cc(Oc2cccnc2)cc([N+](=O)[O-])c1, which growth rescue activity is on record?
Its growth rescue activity is 5.86% (inactive).

Which growth rescue activity does the source give for O=C(O)CSc1cc(NS(=O)(=O)c2ccc(Br)cc2)c2ccccc2c1O here?
The growth rescue activity was 30.5% (inactive).

Which growth rescue activity does the source give for COC(=O)/C(=C/Nc1ccc(O)cc1)[N+](=O)[O-] here?
The growth rescue activity was -10% (inactive).

Which growth rescue activity does the source give for CN(C)c1ccc(NC2=C(Cl)C(=O)c3ccccc3C2=O)cc1 here?
The growth rescue activity was -12.8% (inactive).

With O=C(CC1(O)C(=O)Nc2cc(Cl)cc(Cl)c21)c1ccncc1 (centres undefined) as the compound, how does the growth rescue activity read?
The growth rescue activity was -23.3% (inactive).

With O=Cc1ccc(O)c2ncccc12 as the compound, how does the growth rescue activity read?
The growth rescue activity was -72% (inactive).

For CCc1cc(C(=O)Nc2nc(-c3ccccn3)cs2)sc1C, which growth rescue activity is on record?
Its growth rescue activity is -67.6% (inactive).

For COc1cc([N+](=O)[O-])cc(/C=N/NC(=O)c2cncc(Br)c2)c1O, which growth rescue activity is on record?
The growth rescue activity was -13.3% (inactive).

Which growth rescue activity does the source give for Cc1ccc(-c2c3c(nc4sc(C(N)=O)c(N)c24)CCCC3)o1 here?
Its growth rescue activity is -35.3% (inactive).

For O=C(c1ccc(-c2ccccc2)cc1)C1CCCN(C(=O)c2cncs2)C1 (centres undefined), which growth rescue activity is on record?
The growth rescue activity was -59.8% (inactive).

Which growth rescue activity does the source give for N#Cc1c(-c2ccco2)c2c([nH]c1=S)CCCC2 here?
Its growth rescue activity is -16.7% (inactive).

For O=C1c2ccccc2-n2c1nc1ccccc1c2=O, which growth rescue activity is on record?
Its growth rescue activity is -48.7% (inactive).

Which growth rescue activity does the source give for CCOc1ccc(-c2[nH]ncc2Oc2cccc(OC)c2)c(O)c1 here?
Its growth rescue activity is -63.7% (inactive).

With C=CCn1c(-c2cc(-c3ccc(C)cc3)nc3ccccc23)n[nH]c1=S as the compound, how does the growth rescue activity read?
The growth rescue activity was 0.203% (inactive).

Which growth rescue activity does the source give for O=c1oc(-c2ccccc2)cc(Cl)c1Cl here?
The growth rescue activity was -71.1% (inactive).

Which growth rescue activity does the source give for CC/C(=N/NC(=O)c1ccccc1O)c1c(C)[nH]n(-c2ccccc2)c1=O here?
The growth rescue activity was -59.4% (inactive).

With Cc1cc(NC2=CC(=O)C(=O)c3ccccc32)no1 as the compound, how does the growth rescue activity read?
The growth rescue activity was -9.16% (inactive).

For O=[N+]([O-])c1ccc(Sc2ncccn2)c([N+](=O)[O-])c1, which growth rescue activity is on record?
Its growth rescue activity is -6.92% (inactive).

Source: PubChem BioAssay AID624258 (Broad Institute, 2012)
